Data reported in patent US5891916A, “Aromatic hydroxamix acid compounds, their production and use” (Takeda Chemical Industries, Ltd., priority 1995, dated 1999).

test system: rat mixed cerebral cell culture; assay: Neutralizing effect on lipopolysaccharide (LPS)-induced cytotoxicity in a rat mixed cerebral cell culture system (LIC assay); type: cell-based; conditions: neonatal rat mixed cerebral cells, 4 to 5 days incubation, MTT, concentration giving 50% recovery rate, read-out: ED50 value
Protocol: Neutralizing effect on lipopolysaccharide (LPS)--induced cytotoxicity in a rat mixed cerebral cell culture system (LIC assay)
LPS, a substance known to activate glial cells (astrocytes, microglia), was added to a rat mixed cerebral cell culture system and the compounds which would neutralize the cytotoxicity induced by LPS were screened by the following method.
(1) Neonatal rat mixed cerebral cell culture
From neonatal Crj:CD (SD) rats (1-3 day old, Charles-River Japan, Ltd), the brains were isolated and placed in ice-cooled D-MEM/10% FCS (Dulbecco's cell culture minimal essential medium supplemented with 10% of fetal calf serum, 100 units/ml of penicillin and 100 gg/ml of streptomycin). Then, mixed cerebral cell culture were treated in the following steps. Incidentally stating, ice-cooled D-MEM/10%FCS was used as the medium.
1. The cerebrum was separated from the enucleated brain and the meninges was removed under a stereoscopic microscope.
2. The cerebrums were placed in a nylon-mesh (100-200 μm) bag for filtration with the aid of a rubber policeman.
3. Using ice-cooled D-MEM/10% FCS, the cells were washed three times (1,000 rpm, 8 min.). Then, this cell suspension was subjected to filtration through a cell strainer (40 μm mesh, Falcon 2340) and the number of viable cells was counted by the trypan blue method.
4. The cells were seeded in a tissue-culture flask (96-well microtiter plate, Nunc) at a cell density of 1×10^5 cells/100 μl/well).
5. One week later, 100 μl/well of D-MEM/10% FCS was added.
6. The plate was further incubated for about 1 to 2 weeks and the neutralizing activity of the test compounds was evaluated by the following method.
(2) Evaluation of neutralizing activity
1. Following the rat mixed cerebral cell culture in (1) above (after 2-3 weeks of incubation), the medium was discarded from the respective wells of the 96-well microtiter plate, and 50 μl/well of fresh D-MEM/2% FCS was added.
2. A test sample and LPS (manufactured by Difco Inc., E. coli 011: B4, Bact) of an adequate concentration, 25 μl per well, were respectively added. D-MEM/2% FCS was employed as the medium.
As the test sample, each of the compounds shown in Table 21 was dissolved in DMSO at a concentration of 10^-2 M and the solution was diluted with D-MEM/2% FCS, which was used for assay.
3. After a suitable period (usually 4 to 5 days) of incubation, the degree of cytotoxic effect was assessed by the microscopic observation, and MTT method.
(3) MTT [3-(4,5-dimethylthiazol-2-yl)-2,5-diphenyltetrazolium bromide] method
MTT dissolved in a phosphate-buffered physiological saline solution (5 mg/ml, manufactured by Sigma Chemical Co.,) was added, 10 μl per well. After 4 to 6 hours of incubation (37° C., under 10% carbon dioxide gas phase), 100 μl/well of 0.01N HCl containing 10% SDS was added to thereby dissolve the formed formazan. After complete dissolution, the absorbance (wave-length 540-590 nm) was measure for each well.
The ED50 values were determined by calculating the recovery rates by means of the following equation and plotting the concentrations of compounds giving a recovery rate of 50% on graph paper.
Recovery rate (%)=(C-B)×100/(A-B)
[A: the absorbance at 550 nm of the control well to which only the medium had been was added
B: the absorbance at 550 nm of the well to which LPS had been added
C: the absorbance at 550 nm of the well to which both LPS and the test compound had been added]

Row | Compound | EC50 [nM]
1 | N#CC(CCCCCC(=O)NO)(c1ccccc1)c1ccc2ccccc2n1 (stereo not drawn) [Compound 12, 7-cyano-7-phenyl-7-(2-quinolyl)heptanohydroxamic acid] | 10
2 | COc1ccccc1C(C#N)(CCCCCC(=O)NO)c1ccccc1 (stereo not drawn) [Compound 4, 7-cyano-7-(2-methoxyphenyl)-7-phenylheptanohydroxamic acid] | 10
3 | CCC(=O)ONC(=O)CCCCCC(C#N)(c1ccccc1)c1ccccc1 [Compound 13, O-Propionyl-7-cyano-7,7-diphenylheptanohydroxamic acid] | 10
4 | N#CC(CCCCCC(=O)NO)(c1ccccc1)c1ccccc1 [Compound 1, 7-Cyano-7,7-diphenylheptanohydroxamic acid] | 10
5 | N#CC(CCCCCC(=O)NOC(=O)c1ccccc1)(c1ccccc1)c1ccc2ccccc2n1 (stereo not drawn) [Compound 21, O-benzoyl-7-cyano-7-phenyl-7-(2-quinolyl)heptanohydroxamic acid] | 10
6 | CCC(=O)ONC(=O)CCCCCC(C#N)(c1ccccc1)c1ccc2ccccc2n1 (stereo not drawn) [Compound 20, O-propionyl-7-cyano-7-phenyl-7-(2-quinolyl)heptanohydroxamic acid] | 10
7 | N#CC(CCCCCC(=O)NO)(c1ccccc1)c1nc2ccccc2s1 (stereo not drawn) [Compound 11, 7-(2-benzothiazolyl)-7-cyano-7-phenylheptanohydroxamic acid] | 10
8 | N#CC(CCCCCC(=O)NO)(c1ccccc1)c1ccc(F)cc1 (stereo not drawn) [Compound 3, 7-cyano-7-(4-fluorophenyl)-7-phenylheptanohydroxamic acid] | 10

test system: rats pretreated with LPS infused into the unilateral striatum; assay: Inhibitory effect on the apomorphine-induced circling behavior in rats pretreated with LPS infused into the unilateral striatum; type: in vivo, rat; conditions: male Wistar rats; i.p. 0.2 ml per 100 g, 30 minutes before LPS infusion and 3 and 24 hours after; apomorphine 1 mg/kg s.c. 7-8 days postoperatively; 30-minute count
Protocol: Inhibitory effect on the apomorphine -induced circling behavior in rats pretreated with LPS infused into the unilateral striatum Male Wistar rats (8-9 week old) weighing 250-280 g at the operation for LPS infusion were submitted to this experiment.. Throughout the experimental period, the animals were group-fed in a vivarium controlled at 24±1° C. and 55±1% R.H., with a light-dark cycle of 12 hr (7:00-19:00 ON) and free access to food (Clea Japan, Inc., CE-2 solid pellets) and water (tap water). Under pentobarbital (50 mg/kg, i.p.) anesthesia, the rat's head was immobilized in David Kopf's brain stereotaxic apparatus for small animal use and with reference to Pellegrino & Cushman's brain atlas, a 30 Gauge stainless steel needle was indwelled in the unilateral striatum (A8.2, L2.8, H4.3). The infusion volume of LPS was set at 5 μg. LPS was dissolved in 1 μl of a phosphate-buffered physiological saline solution (PBS, pH 7.2) and the solution was infused gradually at a speed of 0.2 μl/min. The infusion needle was kept in position till 3 minutes following infusion and withdrawn only after sufficient diffusion of the drug solution had taken place. After 7-8 days postoperatively, 1 mg/kg of apomorphine was administered subcutaneously and the number of induced circling behavior during a 30-minute period immediately following administration were determined with an automatic counter. […]

Row | Compound | number of induced circling behavior relative to control group [%]
9 | N#CC(CCCCCC(=O)NO)(c1ccccc1)c1ccccc1 [Compound 1, 7-Cyano-7,7-diphenylheptanohydroxamic acid] | 41
